According to PMC11892739, “Site-specific molecular glues for the 14-3-3/Tau pS214 protein–protein interaction via reversible covalent imine tethering” (RSC Medicinal Chemistry, 2025):

Target: T1, 14-3-3/Pin1 complex (Homo sapiens, UniProt P63104)
T1 construct: made in house; host or cells: NiCo21 (DE3) E. coli
Assay: FA peptide screen, 14-3-3ζ titration to client peptide and compound: Pin1
Type: binding
Conditions: 250 μM compound
Experimental: Since the hub protein 14-3-3 binds to hundreds of phosphoprotein partners, selectivity of PPI stabilization is a major challenge. The interplay of chemical reactivity, and the topology and functionality of the composite binding pocket shaped by 14-3-3 and Tau potentially provide entries towards selective stabilization. […] Here, 14-3-3ζ was titrated to a constant concentration of client peptide (100 nM) and compound (250 μM) to determine the SF250μM values for the particular 14-3-3 PPI. A variety of 14-3-3 binding proteins was represented in this client panel whereby the size and hydrophobicity of the +1 amino acid were varied. […]
chromatography (HisTrap high performance cartridges, Cytiva). […]
0.1% (v/v) Tween20, 0.1% (w/v) BSA). […] Measurements were performed directly after plate preparation, using a Tecan SPARK plate reader at room temperature ( λex: 485±20 nm; λem: 535±25 nm; mirror: automatic; flashes: 30; settle time: 1 ms; gain: optimal; Z -position: calculated from well). […] All data were analyzed using GraphPad Prism (10.0.1) and fitted with a four -parameter logistic model (4PL) to determine binding affinities (dissociation constant, KD). […]
Fluorescence Anisotropy – peptide screen […]

T1 sequence (P63104 whole entry, other chains not shown): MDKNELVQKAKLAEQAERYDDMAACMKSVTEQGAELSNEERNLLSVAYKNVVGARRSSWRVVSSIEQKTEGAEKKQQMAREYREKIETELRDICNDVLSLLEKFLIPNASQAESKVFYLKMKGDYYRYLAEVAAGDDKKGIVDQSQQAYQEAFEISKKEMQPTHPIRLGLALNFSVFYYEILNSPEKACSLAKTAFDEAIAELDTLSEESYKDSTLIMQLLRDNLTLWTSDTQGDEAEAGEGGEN

- SF250μM for 14-3-3/Pin1 PPI stabilization (100 nM Pin1 peptide, 14-3-3ζ titrated): 3.9
- stabilization of 14-3-3/Pin1 peptide (in words) (100 nM peptide, +1 Trp): no significant stabilization
Structure (SMILES): CCc1ccc(-c2nccn2-c2ccc(C=O)c(Br)c2)cc1 [Compound 18]
